For the assay, the system named is protéine Tau. Kind of assay: Tau hyperphosphorylation in cortical neurons after Aβ1-42. The assay is classed as cell-based, rats. As to conditions: Rattus norvegicus, Cortical neurone, Aβ1-42 2,5 µM, 16 h (Aβ1-42 alone 183%), read-out: hyperphosphorylation de Tau. The procedure:
Des neurones corticaux de rats sont mis en culture comme dans la méthode décrite par Singer (1999) J. Neurosci. 19:2455-2463. Des rats femelles enceintes de 15 jours sont tuées par dislocation des cervicales (Rats Wistar, Janvier) et le fœtus est retiré de l'utérus. Les cortex sont prélevés et placés dans un milieu glacé de Leibovitz (L15, Panbiotech, Réf : P04-27055, lot : 9310614) contenant 2% de pénicilline (10 000 U/ml) et de streptomycine (10 mg/ml) (PS, Panbiotec, Réf : P06-07100, lot : 48101114) et 1% de sérum-albumine bovine (BSA, Panbiotech, Réf : P06-1391100, lot : H140603). Les cortex sont dissociés par trypsination (0,05% Panbiotech, Réf : P10-023100, lot : 5890314) pendant 20 minutes à 37°C. La réaction est stoppée par addition d'un milieu Eagle modifié de Dulbecco (DMEM, Panbiotech, réf P04-03600, lot : 9670913) contenant de la DNase I grade Il (0,1 mg/ml Panbiotech, Réf : P60-37780100, lot : H140508) et 10 % de sérum de veau fœtal (FCS, Invitrogen, Réf : 10270 à 098, lot : 41Q4120K). Les cellules sont dissociées mécaniquement par 3 passages à travers une pipette de 10 ml. Les cellules sont ensuite centrifugées à 515 g pendant 10 minutes à 4°C. Le surnageant est éliminé et les cellules sont remises en suspension dans un milieu de culture Neurobasal (Nb, Invitrogen, Réf : 21103, lot : 1608692) supplémenté avec 2% de B27 (Invitrogen, Réf : 17504, lot : 1589889), 2 mM de L-glutamine (Panbiotech, Réf : P04-80100, lot : 6620314), 2% de la solution PS et 10 ng/ml de facteur neurotrophique dérivé du cerveau (BDNF, PanBiotech, Réf : CB-1115002, lot : 4810114). Les cellules sont ensemencées à une densité de 30 000 cellules/puits dans des plaques de 96 puits pré-enduites de poly-L-lysine (10 ng/ml, Greiner Réf : 655930, lot : E14021HD) et cultivées à 37 °C dans une atmosphère humidifiée avec 95% d'air et 5% de CO2 pour l'évaluation de la survie des neurones (analyse de MAP2 par immuno-coloration) (6 puits/condition, 1 culture).
La préparation du peptide amyloïde β1-42 (Aβ1-42) est réalisée en suivant la procédure par Callizot et al. (2013) Neurosci. Res. 91:706-16. […]

Consider `CCNC1=Nc2ccc(Cl)cc2C(C)(c2ccccc2)O1` (stereo not drawn) [Etifoxine, chlorhydratede 6-chloro-2-éthylamino-4-méthyl-4-phényl-4H-[3,1]benzoxazine], for which the activity at 1 µM (étifoxine 1 µM) turned out to be 114%. Also, where the note is “étifoxine 3 µM”, the activity at 3 µM turned out to be 104%. The activity at 10 µM (étifoxine 10 µM) came to 97.4%.

The values above are taken from EP3454861B1, “BENZOXAZINE OR QUINAZOLINE DERIVATIVES FOR USE IN THE TREATMENT OF ALZHEIMER'S DISEASE” (Biocodex, priority 2016, dated 2017).
